Reference: PubChem BioAssay AID2060510 (Molecular Pharmacology Branch, DTP, NCI, 2025)
One block for each molecule: values may come before it.

Tested on: 439559-082-T-J2-PDC spheroids viability
Assay: Anticancer human tumor 439559-082-T-J2-PDC patient-derived colon adenocarcinoma cell line growth inhibition [GQUAD]
Settings: for IC50: curve of first compound; for viability, T/C: stronger effect = lower value
Procedure, shortened: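 Tumor cells were grown as complex spheroids with HUVEC endothelial cells and mesenchymal stem cells as stroma. G-quadruplex stabilizers were combined with targeted agents over half-log dilutions from near the clinical Cmax, or from 10 microM.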

[1] = second compound 0.0316 µM, first compound 0.0316 µM
[2] = second compound 0.0316 µM, first compound 0.1 µM
[3] = second compound 0.0316 µM, first compound 0.316 µM
[4] = second compound 0.0316 µM, first compound 1 µM
[5] = second compound 0.0316 µM, first compound 3.16 µM
[6] = second compound 0.0316 µM, first compound 10 µM
[7] = second compound 0.1 µM, first compound 0.0316 µM
[8] = second compound 0.1 µM, first compound 0.1 µM
[9] = second compound 0.1 µM, first compound 0.316 µM
[10] = second compound 0.1 µM, first compound 1 µM
[11] = second compound 0.1 µM, first compound 3.16 µM
[12] = second compound 0.1 µM, first compound 10 µM
[13] = second compound 0.316 µM, first compound 0.0316 µM
[14] = second compound 0.316 µM, first compound 0.1 µM
[15] = second compound 0.316 µM, first compound 0.316 µM
[16] = second compound 0.316 µM, first compound 1 µM
[17] = second compound 0.316 µM, first compound 3.16 µM
[18] = second compound 0.316 µM, first compound 10 µM
[19] = second compound 1 µM, first compound 0.0316 µM
[20] = second compound 1 µM, first compound 0.1 µM
[21] = second compound 1 µM, first compound 0.316 µM
[22] = second compound 1 µM, first compound 1 µM
[23] = second compound 1 µM, first compound 3.16 µM
[24] = second compound 1 µM, first compound 10 µM
[25] = second compound 3.16 µM, first compound 0.0316 µM
[26] = second compound 3.16 µM, first compound 0.1 µM
[27] = second compound 3.16 µM, first compound 0.316 µM
[28] = second compound 3.16 µM, first compound 1 µM
[29] = second compound 3.16 µM, first compound 3.16 µM
[30] = second compound 3.16 µM, first compound 10 µM
[31] = second compound 10 µM, first compound 0.0316 µM
[32] = second compound 10 µM, first compound 0.1 µM
[33] = second compound 10 µM, first compound 0.316 µM
[34] = second compound 10 µM, first compound 1 µM
[35] = second compound 10 µM, first compound 3.16 µM
[36] = second compound 10 µM, first compound 10 µM
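Note: spheroids exposed to the agents for 7 days before readout.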
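Throughout, for viability, T/C: percent of luminescence signal in DMSO vehicle wells taken as 100% viability.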

- IC50 (second compound 0.0316 µM): 2.61 µM
- IC50 (second compound 0.1 µM): 2.53 µM
- IC50 (second compound 0.316 µM): 1.74 µM
- IC50 (second compound 1 µM): 1.4 µM
- IC50 (second compound 3.16 µM): 1.28 µM
- IC50 (second compound 10 µM): 1.08 µM
SMILES: C=CCn1c(=O)c2cnc(Nc3ccc(N4CCN(C)CC4)cc3)nc2n1-c1cccc(C(C)(C)O)n1 + Cc1cnc(CNC(=O)c2c(=O)c3ccc(N4CCCN(C)CC4)nc3n3c2sc2ccccc23)cn1
- viability, T/C [1]: 95.4%
- viability, T/C [2]: 93.7%
- viability, T/C [3]: 88.8%
- viability, T/C [4]: 83.7%
- viability, T/C [5]: 43.2%
- viability, T/C [6]: 25.4%
- viability, T/C [7]: 104%
- viability, T/C [8]: 83.6%
- viability, T/C [9]: 91.4%
- viability, T/C [10]: 76%
- viability, T/C [11]: 43.1%
- viability, T/C [12]: 22.2%
- viability, T/C [13]: 84.6%
- viability, T/C [14]: 87.5%
- viability, T/C [15]: 73.5%
- viability, T/C [16]: 66.3%
- viability, T/C [17]: 33.8%
- viability, T/C [18]: 24%
- viability, T/C [19]: 83.2%
- viability, T/C [20]: 87.9%
- viability, T/C [21]: 72.1%
- viability, T/C [22]: 61.8%
- viability, T/C [23]: 27.3%
- viability, T/C [24]: 20.2%
- viability, T/C [25]: 73.3%
- viability, T/C [26]: 63.6%
- viability, T/C [27]: 68.3%
- viability, T/C [28]: 56.8%
- viability, T/C [29]: 25.1%
- viability, T/C [30]: 18.5%
- viability, T/C [31]: 66.2%
- viability, T/C [32]: 53.9%
- viability, T/C [33]: 61.2%
- viability, T/C [34]: 51.1%
- viability, T/C [35]: 31.2%
- viability, T/C [36]: 13.8%

SMILES: O=C(c1cc(Cc2n[nH]c(=O)c3ccccc23)ccc1F)N1CCN(C(=O)C2CC2)CC1 + Cc1[nH]c2ccc(F)cc2c1-c1nc2c3cccnc3c3ncccc3c2[nH]1
- IC50 (second compound 0.0316 µM): > 10 µM
- IC50 (second compound 0.1 µM): > 10 µM
- IC50 (second compound 0.316 µM): > 10 µM
- IC50 (second compound 1 µM): > 10 µM
- IC50 (second compound 3.16 µM): > 10 µM
- IC50 (second compound 10 µM): > 10 µM
- viability, T/C [1]: 100%
- viability, T/C [2]: 110%
- viability, T/C [3]: 91.5%
- viability, T/C [4]: 96.8%
- viability, T/C [5]: 102%
- viability, T/C [6]: 96.3%
- viability, T/C [7]: 103%
- viability, T/C [8]: 104%
- viability, T/C [9]: 94.9%
- viability, T/C [10]: 90.5%
- viability, T/C [11]: 103%
- viability, T/C [12]: 100%
- viability, T/C [13]: 103%
- viability, T/C [14]: 99.3%
- viability, T/C [15]: 105%
- viability, T/C [16]: 102%
- viability, T/C [17]: 107%
- viability, T/C [18]: 89.9%
- viability, T/C [19]: 105%
- viability, T/C [20]: 102%
- viability, T/C [21]: 98.3%
- viability, T/C [22]: 99.3%
- viability, T/C [23]: 105%
- viability, T/C [24]: 89%
- viability, T/C [25]: 90.8%
- viability, T/C [26]: 79%
- viability, T/C [27]: 92.7%
- viability, T/C [28]: 89.9%
- viability, T/C [29]: 98.8%
- viability, T/C [30]: 87.3%
- viability, T/C [31]: 88.2%
- viability, T/C [32]: 87.1%
- viability, T/C [33]: 86.2%
- viability, T/C [34]: 76%
- viability, T/C [35]: 90.5%
- viability, T/C [36]: 89.5%

SMILES: C=CC(=O)N1CCN(c2nc(=O)n(-c3c(C)ccnc3C(C)C)c3nc(-c4c(O)cccc4F)c(F)cc23)C(C)C1 (stereo unspecified) + CN(C)c1ccc(Nc2c3ccc(NC(=O)CCN4CCCC4)cc3nc3cc(NC(=O)CCN4CCCC4)ccc23)cc1
- IC50 (second compound 0.0316 µM): > 10 µM
- IC50 (second compound 0.1 µM): > 10 µM
- IC50 (second compound 0.316 µM): > 10 µM
- IC50 (second compound 1 µM): > 10 µM
- IC50 (second compound 3.16 µM): > 10 µM
- IC50 (second compound 10 µM): > 10 µM
- viability, T/C [1]: 103%
- viability, T/C [2]: 91.4%
- viability, T/C [3]: 93.6%
- viability, T/C [4]: 104%
- viability, T/C [5]: 111%
- viability, T/C [6]: 95.4%
- viability, T/C [7]: 105%
- viability, T/C [8]: 92.2%
- viability, T/C [9]: 104%
- viability, T/C [10]: 97.6%
- viability, T/C [11]: 111%
- viability, T/C [12]: 104%
- viability, T/C [13]: 104%
- viability, T/C [14]: 102%
- viability, T/C [15]: 91.6%
- viability, T/C [16]: 114%
- viability, T/C [17]: 106%
- viability, T/C [18]: 110%
- viability, T/C [19]: 112%
- viability, T/C [20]: 96.3%
- viability, T/C [21]: 105%
- viability, T/C [22]: 97.6%
- viability, T/C [23]: 120%
- viability, T/C [24]: 108%
- viability, T/C [25]: 94.8%
- viability, T/C [26]: 103%
- viability, T/C [27]: 108%
- viability, T/C [28]: 108%
- viability, T/C [29]: 114%
- viability, T/C [30]: 108%
- viability, T/C [31]: 103%
- viability, T/C [32]: 96%
- viability, T/C [33]: 96.8%
- viability, T/C [34]: 106%
- viability, T/C [35]: 109%
- viability, T/C [36]: 100%
